PubChem BioAssay AID624003 (Vanderbilt Specialized Chemistry Center, 2012)
pIC50: −log10 of the molar value.

Target: Phospholipase D1 (Homo sapiens) + Phospholipase D1 (Homo sapiens) (UniProt Q13393+Q13393)
Assay: PLD1 inhibition potency in cells, dose response, cell-based, Lib32, assay 2A (AID 624003)
Details: cellular PLD1 activity assay

Sequence of Phospholipase D1 (Homo sapiens) + Phospholipase D1 (Homo sapiens) (Q13393 whole entry, looked up): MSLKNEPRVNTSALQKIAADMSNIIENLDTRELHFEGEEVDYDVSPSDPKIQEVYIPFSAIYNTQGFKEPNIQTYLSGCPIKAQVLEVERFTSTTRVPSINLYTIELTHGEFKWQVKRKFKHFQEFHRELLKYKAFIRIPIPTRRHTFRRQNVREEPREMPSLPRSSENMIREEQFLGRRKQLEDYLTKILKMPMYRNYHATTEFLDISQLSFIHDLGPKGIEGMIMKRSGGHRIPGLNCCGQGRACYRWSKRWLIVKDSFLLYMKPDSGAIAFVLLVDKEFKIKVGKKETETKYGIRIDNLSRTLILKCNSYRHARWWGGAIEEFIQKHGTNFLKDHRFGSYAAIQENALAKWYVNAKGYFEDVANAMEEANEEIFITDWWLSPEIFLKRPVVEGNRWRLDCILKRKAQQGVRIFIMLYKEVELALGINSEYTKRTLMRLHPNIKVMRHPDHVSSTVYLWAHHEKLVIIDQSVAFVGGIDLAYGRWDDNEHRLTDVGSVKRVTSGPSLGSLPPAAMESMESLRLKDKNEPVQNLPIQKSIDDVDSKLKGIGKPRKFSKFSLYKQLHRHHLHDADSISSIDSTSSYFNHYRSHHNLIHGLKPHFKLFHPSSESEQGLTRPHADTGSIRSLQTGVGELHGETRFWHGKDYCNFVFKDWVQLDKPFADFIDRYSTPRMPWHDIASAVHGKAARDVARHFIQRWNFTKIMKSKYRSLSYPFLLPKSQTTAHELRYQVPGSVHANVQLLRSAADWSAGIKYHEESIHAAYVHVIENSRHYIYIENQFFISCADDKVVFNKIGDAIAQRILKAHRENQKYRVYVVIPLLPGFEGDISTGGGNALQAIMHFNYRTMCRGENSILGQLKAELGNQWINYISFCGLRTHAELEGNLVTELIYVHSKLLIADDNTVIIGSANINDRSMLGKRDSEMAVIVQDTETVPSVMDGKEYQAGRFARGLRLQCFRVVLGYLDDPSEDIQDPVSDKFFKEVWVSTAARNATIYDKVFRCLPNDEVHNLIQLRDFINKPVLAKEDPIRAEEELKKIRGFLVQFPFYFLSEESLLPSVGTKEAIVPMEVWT
Sequence of Phospholipase D1 (Homo sapiens) + Phospholipase D1 (Homo sapiens) (Q13393 whole entry, looked up): as above

| SMILES | pIC50 |
| --- | --- |
| O=C(NCCN1CCC2(CC1)C(=O)NCN2c1cccc(F)c1)c1ccc(Br)cc1 | 5.81 |
| C[C@@H](CN1CCC2(CC1)C(=O)NCN2c1cccc(F)c1)NC(=O)c1cccc(F)c1 | 7.14 |
| COc1cc(C(=O)NCCN2CCC3(CC2)C(=O)NCN3c2cccc(F)c2)cc(OC)c1OC | 5.36 |
| C[C@@H](CN1CCC2(CC1)C(=O)NCN2c1cccc(F)c1)NC(=O)c1ccc(F)cc1F | 6.87 |
| COc1cc(C(=O)N[C@@H](C)CN2CCC3(CC2)C(=O)NCN3c2cccc(F)c2)cc(OC)c1OC | 7.66 |
| C[C@@H](CN1CCC2(CC1)C(=O)NCN2c1cccc(F)c1)NC(=O)c1ccc(F)cc1 | 7.70 |
| C[C@@H](CN1CCC2(CC1)C(=O)NCN2c1cccc(F)c1)NC(=O)c1ccc(F)c(F)c1 | 7.07 |
| C[C@@H](CN1CCC2(CC1)C(=O)NCN2c1cccc(F)c1)NC(=O)c1cccc([N+](=O)[O-])c1 | 6.91 |
